# Results from patent US12064443B2 (priority 2021, dated 2024).
# Experiments:
# [1] = system: Cholera toxin (CTx) challenge; conditions: mouse, in vivo
# [2] = cited from earlier work
Compound,Effect on volume of intestinal secretion upon CTx challenge [1],Solubility in water [2]
Sucralfate,neither polyphenol nor sucralfate reduced the volume of intestinal secretion,poorly soluble
O=S(=O)([O-])OC[C@H]1O[C@@](COS(=O)(=O)[O-])(O[C@H]2O[C@H](COS(=O)(=O)[O-])[C@@H](OS(=O)(=O)[O-])[C@H](OS(=O)(=O)[O-])[C@H]2OS(=O)(=O)[O-])[C@@H](OS(=O)(=O)[O-])[C@@H]1OS(=O)(=O)[O-].[K+].[K+].[K+].[K+].[K+].[K+].[K+].[K+] [Sucrose octasulfate-potassium salt],,freely soluble
